Source: PMC4422956 (EJNMMI Research, 2014)

Key:
human DA D2L receptor [1] = biological target: T1, human DA D2L receptor (Homo sapiens, UniProt P14416); assay: 3H-spiperone radioligand binding, membranes; settings: read-out: pK i D 2 -high (converted)
T1 construct: gene DRD2; full-length D2L stably expressed in HEK 293 cells
Excerpt: 3H-spiperone radioligand binding, membranes on human DA D2L receptor

human DA D2L receptor [2] = biological target: T1, human DA D2L receptor; assay: cAMP accumulation, HEK […] cells; type: cell-based; settings: read-out: cAMP / Potency (converted)

T1 sequence (P14416 whole entry): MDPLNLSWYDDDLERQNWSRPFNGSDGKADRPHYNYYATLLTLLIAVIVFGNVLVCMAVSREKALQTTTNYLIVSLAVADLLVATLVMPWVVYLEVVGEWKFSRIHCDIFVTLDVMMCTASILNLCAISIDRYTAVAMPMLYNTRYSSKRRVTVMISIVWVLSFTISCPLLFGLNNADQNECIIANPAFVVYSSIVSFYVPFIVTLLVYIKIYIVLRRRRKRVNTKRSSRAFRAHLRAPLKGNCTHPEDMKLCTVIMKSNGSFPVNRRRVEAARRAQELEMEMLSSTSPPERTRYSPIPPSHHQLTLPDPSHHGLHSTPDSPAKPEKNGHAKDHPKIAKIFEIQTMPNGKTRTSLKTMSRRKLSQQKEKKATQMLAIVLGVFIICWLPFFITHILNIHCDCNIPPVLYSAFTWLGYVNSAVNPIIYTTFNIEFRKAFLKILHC

CCN1CCC[C@H]1CNC(=O)c1c(OC)ccc(I)c1O [IBZM]
Ki (human DA D2L receptor [1]): 0.102 µM | EC50 (human DA D2L receptor [2]): 0.000832 µM
